Earlier results, collected in patent US11771641B2, “Method for dyeing keratinous material by means of a premix of aminosilicone and a chromophoric compound” (Henkel AG & Co. KGaA, priority 2019, dated 2023).

Details: 25° C.

solubility in water | solubility in water (in words) | SMILES
more than 20 % by weight |  | CCN(Cc1cccc(S(=O)(=O)O)c1)c1ccc(C(=C2C=CC(=[N+](CC)Cc3cccc(S(=O)(=O)O)c3)C=C2)c2ccccc2S(=O)(=O)[O-])cc1 [Acid Blue 9]
above 40 g/L |  | O=[N+]([O-])c1cc([N+](=O)[O-])c2ccc(S(=O)(=O)O)cc2c1O [Acid Yellow 9, 8-hydroxy-5,7-dinitro-2-naphthalenesulfonic acid]
 | highly soluble | O=C(O)C1=NN(c2ccc(S(=O)(=O)O)cc2)C(=O)C1N=Nc1ccc(S(=O)(=O)O)cc1 (stereo not shown) [Acid Yellow 23, 4,5-dihydro-5-oxo-1-(4-sulfophenyl)-4-((4-sulfophenyl)azo)-1H-pyrazole-3-carboxylic acid]

SMILES | solubility in water | solubility in water (in words)
O=S(=O)(O)c1ccc(N=Nc2c(O)ccc3ccccc23)cc1 [Acid Orange 7, 4-[(2-hydroxy-1-naphthyl)azo]benzene sulphonate] | more than 7 g/L | 
